Experimental data reported in PMC7248252, “Accumulation of TB-Active Compounds in Murine Organs Relevant to Infection by Mycobacterium tuberculosis” (Frontiers in Pharmacology, 2020).
In brackets after ≈: the same amount, converted by molar mass.

Tests used:
[1] = design: method as in Ishida et al., 1999; settings: 120 mg/kg, Streptococcus pneumoniae-infected mouse model; ref Ishida et al., 1999; cited from earlier work
[2] = Unbound tissue concentrations (tissue binding by ultracentrifugation of spiked organ homogenate); settings: 1 μg/ml, 4 h, 37°C
[3] = in vivo, po, 10 mg/kg
[4] = system: Mycobacterium tuberculosis; settings: determined in different experiments, reference not given; cited from earlier work
[5] = mouse, tissue homogenate
[6] = 25 mg/kg, healthy murine lung tissue; ref Irwin et al., 2016; cited from earlier work

SMILES	maximal lung concentration [1] [µg/g]	Ratio bound ([2]; Blood)	Ratio bound ([2]; Brain)	Ratio bound ([2]; Heart)	Ratio bound ([2]; Kidney)	Ratio bound ([2]; Liver)	Ratio bound ([2]; Lung)	Ratio bound ([2]; Spleen)	Cmax (highest concentration) lung tissue ([3]; mouse) [nmol/mg]	estimated organ free fraction concentration compared with MIC90 ([3]; mouse)	MIC90 [4] [µM]	unbound fractions [5]	further results
CC1(C)S[C@@H]2[C@H](NC(=O)[C@H](N)c3ccccc3)C(=O)N2[C@H]1C(=O)O [ampicillin]	1.71	–	–	–	–	–	–	–	–	–	–	–	–
CCN(CC)c1ccc2nc3c4ccccc4c(=Nc4ccccc4)cc-3oc2c1 [PhX1]	–	0.88	0.98	0.98	0.97	0.99	0.97	0.94	22.4 ± 2.35	below the MIC90 values	0.196 (≈ 0.0771 µg/mL)	0.18-0.01	AUC lung tissue ([3]; male, C57BL/6, mouse): 9669 ± 120.2 min/nmol/mg; AUC heart tissue ([3]; mouse): 12450 ± 45.2 min/nmol/mg; Cmax heart tissue ([3]; mouse): 8.83 ± 3.16 nmol/mg
C[C@H]1COc2c(N3CCN(C)CC3)c(F)cc3c(=O)c(C(=O)O)cn1c23 [LVX]	5.95	–	–	–	–	–	–	–	–	–	–	–	–
O=C(O)c1cn(C2CC2)c2cc(N3CCNCC3)c(F)cc2c1=O [ciprofloxacin]	1.10	–	–	–	–	–	–	–	–	–	–	–	–
CCCCCCCCCOc1cc2c(=O)c(C(=O)NCCOCCO)cn(CC)c2cc1OCC [RMB041]	–	0.82	0.98	0.97	0.97	0.91	0.93	0.92	3.2	below the MIC90 values	1.61 (≈ 0.79 µg/mL)	0.18-0.01	–
COc1nc2ccc(Br)cc2cc1[C@@H](c1ccccc1)[C@@](O)(CCN(C)C)c1cccc2ccccc12 [bedaquiline]	–	–	–	–	–	–	–	–	–	–	–	–	Cmax lung tissue [6]: 24 µM
